Measurements as given in ChEMBL document CHEMBL4513161, “CO-ADD screening of MMV (CH) - Pandemic Response Box” (2021).
In brackets after ≈: the same amount, converted by molar mass. Structures can show the parent of a compound that is named as a salt.

Columns and labels:
[1] = test system: HEK293; assay: cells; type: functional, Homo sapiens, ATCC CRL1573; settings: Homo sapiens, ATCC CRL1573, HEK293; ASSAY_TEST Inhibition of Cell Viability; detection method Resazurin; Fluorescence (ex560/em590); MEDIA DMEM with 10% FBS; plate type 384well; TC; CORNING #3712; time 18 hr; read-out: CC50
[2] = test system: Pseudomonas aeruginosa; assay: Antibacterial activity against Pseudomonas aeruginosa PAO397 [PAO1 d(mexAB-oprM) d(mexCD-oprJ) d(mexEF-oprN) d(mexJKL) d(mexXY) d(opmH)] (CO-ADD:GN_211); MIC in CAMBH media using NBS plates, by OD(600); type: functional; settings: ASSAY_TEST Inhibition of Bacterial Growth, detection method Absorption (OD600), MEDIA CAMHB, plate type 384well, CORNING #3640, time 18 hr
[3] = test system: Cryptococcus neoformans
[4] = test system: Staphylococcus aureus; assay: microbe, parasite or virus in culture; settings: ATCC 43300, 18 h, ASSAY_TEST Inhibition of Bacterial Growth, detection method Absorption (OD600), MEDIA CAMHB, plate type 384well, NBS, CORNING #3640
[5] = test system: Escherichia coli; assay: microbe, parasite or virus in culture; settings: ATCC 25922, 18 h, ASSAY_TEST Inhibition of Bacterial Growth, detection method Absorption (OD600), MEDIA CAMHB, plate type 384well, NBS, CORNING #3640
[6] = test system: Klebsiella pneumoniae; assay: microbe, parasite or virus in culture; settings: ATCC 700603, 18 h, ASSAY_TEST Inhibition of Bacterial Growth, detection method Absorption (OD600), MEDIA CAMHB, plate type 384well, NBS, CORNING #3640
[7] = test system: Pseudomonas aeruginosa; assay: microbe, parasite or virus in culture; settings: ATCC 27853, 18 h, ASSAY_TEST Inhibition of Bacterial Growth, detection method Absorption (OD600), MEDIA CAMHB, plate type 384well, NBS, CORNING #3640
[8] = test system: Acinetobacter baumannii; assay: microbe, parasite or virus in culture; settings: ATCC 19606, 18 h, ASSAY_TEST Inhibition of Bacterial Growth, detection method Absorption (OD600), MEDIA CAMHB, plate type 384well, NBS, CORNING #3640
[9] = test system: Candida albicans; assay: microbe, parasite or virus in culture; settings: ATCC 90028, ASSAY_TEST Inhibition of Fungal Growth, detection method Absorption (OD530), plate type 384well, NBS, CORNING #3640

## O=C(O)CCNC(=O)c1ccccc1 [BETAMIPRON]
[1]
  CC50: > 20 µM
[2]
  MIC: > 20 µM
[3]
  MIC: > 20 µM
[4]
  MIC: > 20 µM
[5]
  MIC: > 20 µM
[6]
  MIC: > 20 µM
[7]
  MIC: > 20 µM
[8]
  MIC: > 20 µM
[9]
  MIC: > 20 µM

## C=C(C)[C@@H]1CC[C@]2(C(=O)O)CC[C@]3(C)[C@H](CC[C@@H]4[C@@]5(C)CC[C@H](O)C(C)(C)[C@@H]5CC[C@]43C)[C@@H]12 [BETULINIC ACID]
[1]
  CC50: > 20 µM
[2]
  MIC: > 20 µM
[3]
  MIC: > 20 µM
[4]
  MIC: > 20 µM
[5]
  MIC: > 20 µM
[6]
  MIC: > 20 µM
[7]
  MIC: > 20 µM
[8]
  MIC: > 20 µM
[9]
  MIC: > 20 µM

## CC[C@H](NC(=O)[C@H](C)NC)C(=O)N1C[C@@H](O)C[C@H]1Cc1c(-c2[nH]c3cc(F)ccc3c2C[C@@H]2C[C@H](O)CN2C(=O)[C@H](CC)NC(=O)[C@H](C)NC)[nH]c2cc(F)ccc12 [BIRINAPANT]
[1]
  CC50: > 20 µM
[2]
  MIC: > 20 µM
[3]
  MIC: > 20 µM
[4]
  MIC: > 20 µM
[5]
  MIC: > 20 µM
[6]
  MIC: > 20 µM
[7]
  MIC: > 20 µM
[8]
  MIC: > 20 µM
[9]
  MIC: > 20 µM

## CC(C)(C)NC(=O)N[C@H](C(=O)N1C[C@H]2[C@@H]([C@H]1C(=O)NC(CC1CCC1)C(=O)C(N)=O)C2(C)C)C(C)(C)C (some centres not stated) [BOCEPREVIR]
[1]
  CC50: > 20 µM
[2]
  MIC: > 20 µM
[3]
  MIC: > 20 µM
[4]
  MIC: > 20 µM
[5]
  MIC: > 20 µM
[6]
  MIC: > 20 µM
[7]
  MIC: > 20 µM
[8]
  MIC: > 20 µM
[9]
  MIC: > 20 µM

## Nc1nc(=O)c(Br)c(-c2ccccc2)[nH]1 [BROPIRIMINE]
[1]
  CC50: > 20 µM
[2]
  MIC: > 20 µM
[3]
  MIC: > 20 µM
[4]
  MIC: > 20 µM
[5]
  MIC: > 20 µM
[6]
  MIC: > 20 µM
[7]
  MIC: > 20 µM
[8]
  MIC: > 20 µM
[9]
  MIC: > 20 µM

## CN(Cc1ccc(C(C)(C)C)cc1)Cc1cccc2ccccc12 [BUTENAFINE HYDROCHLORIDE]
[1]
  CC50: > 20 µM
[2]
  MIC: > 20 µM
[3]
  MIC: 5 µM
[4]
  MIC: > 20 µM
[5]
  MIC: > 20 µM
[6]
  MIC: > 20 µM
[7]
  MIC: > 20 µM
[8]
  MIC: > 20 µM
[9]
  MIC: > 20 µM

## COC(=O)Nc1nc2ccccc2[nH]1 [CARBENDAZIM]
[1]
  CC50: 15.5 µM
[2]
  MIC: > 20 µM
[3]
  MIC: > 20 µM
[4]
  MIC: > 20 µM
[5]
  MIC: > 20 µM
[6]
  MIC: > 20 µM
[7]
  MIC: > 20 µM
[8]
  MIC: > 20 µM
[9]
  MIC: > 20 µM

## CO/N=C(\C(=O)N[C@@H]1C(=O)N2C(C(=O)OCOC(=O)C(C)(C)C)=C(/C=C\c3scnc3C)CS[C@H]12)c1csc(N)n1 [CEFDITOREN PIVOXIL]
[1]
  CC50: > 20 µM
[2]
  MIC: > 20 µM
[3]
  MIC: > 20 µM
[4]
  MIC: > 20 µM
[5]
  MIC: > 20 µM
[6]
  MIC: > 20 µM
[7]
  MIC: > 20 µM
[8]
  MIC: > 20 µM
[9]
  MIC: > 20 µM

## Cc1c(N)cccc1Cn1ccc(OCCc2cccs2)cc1=O [CG-400549]
[1]
  CC50: > 20 µM
[2]
  MIC: > 20 µM
[3]
  MIC: > 20 µM
[4]
  MIC: 0.625 µM (≈ 0.213 µg/mL)
[5]
  MIC: > 20 µM
[6]
  MIC: > 20 µM
[7]
  MIC: > 20 µM
[8]
  MIC: > 20 µM
[9]
  MIC: > 20 µM

## CCN(CC)CCCC(C)Nc1ccnc2cc(Cl)ccc12 (configuration not stated) [CHLOROQUINE]
[1]
  CC50: > 20 µM
[2]
  MIC: > 20 µM
[3]
  MIC: > 20 µM
[4]
  MIC: > 20 µM
[5]
  MIC: > 20 µM
[6]
  MIC: > 20 µM
[7]
  MIC: > 20 µM
[8]
  MIC: > 20 µM
[9]
  MIC: > 20 µM

## Cc1cc(C2CCCCC2)n(O)c(=O)c1 [CICLOPIROX]
[1]
  CC50: 3.98 µM
[2]
  MIC: > 20 µM
[3]
  MIC: 5 µM (≈ 1.04 µg/mL)
[4]
  MIC: > 20 µM
[5]
  MIC: > 20 µM
[6]
  MIC: > 20 µM
[7]
  MIC: > 20 µM
[8]
  MIC: > 20 µM
[9]
  MIC: 5 µM (≈ 1.04 µg/mL)

## O=C(O)c1cc(-c2ccccc2)nc2ccccc12 [CINCHOPHEN]
[1]
  CC50: > 20 µM
[2]
  MIC: > 20 µM
[3]
  MIC: > 20 µM
[4]
  MIC: > 20 µM
[5]
  MIC: > 20 µM
[6]
  MIC: > 20 µM
[7]
  MIC: > 20 µM
[8]
  MIC: > 20 µM
[9]
  MIC: > 20 µM

## Clc1ccc(Cn2c(CN3CCCC3)nc3ccccc32)cc1 [CLEMIZOLE]
[1]
  CC50: > 20 µM
[2]
  MIC: > 20 µM
[3]
  MIC: > 20 µM
[4]
  MIC: > 20 µM
[5]
  MIC: > 20 µM
[6]
  MIC: > 20 µM
[7]
  MIC: > 20 µM
[8]
  MIC: > 20 µM
[9]
  MIC: > 20 µM
